Test results: US10494356B2, “Compound promoting osteoblast differentiation and inhibiting adipocyte differentiation, preparation method thereof and application thereof” (SUNG KYUN BIOTECH CO., LTD., priority 2016, dated 2019)

Key:
Type in all cases: cell-based, mouse
[1] = system: C3H10T1/2 cells; assay: Fat production during differentiation of C3H10T1/2 cells into adipocytes (Oil Red O staining); details: for effect of inhibiting adipocyte differentiation: Test Example 3: NK11 at 1 μM, other compounds at 5 μM, vs negative control group (DMSO)
Procedure: After plating the cells on a 6-well plate in the same manner as in Test Example 1, they were cultured for 9 days in a medium containing 1 μM dexamethasone, 5 μg/mL insulin and 1 μM troglitazone for adipocyte differentiation after adding the NK11 compound at 0.1, 0.5, 1 and 5 μM. After completion of differentiation, the medium was removed and the cells were fixed with 10% neutral buffered formalin and stained with 0.5% Oil Red O solution.
Then, the Lab color space was measured using the image files of the Oil Red O-stained well plate.

[2] = system: ALP mRNA in C3H10T1/2 cells; assay: mRNA expression of osteoblast differentiation factor ALP (real-time PCR); details: for expression level of ALP, osteogenesis marker (mRNA): Test Example 3: NK11 at 1 μM, other compounds at 5 μM
Text: (§1) The mRNA expression levels of the osteoblast differentiation factor and the adipocyte differentiation factor in the cells treated with the NK11 compound were investigated.
(§2) First, the expression level of the osteoblast differentiation factor ALP was investigated while differentiating the C3H10T1/2 cells into osteoblasts in the same manner as in […]. Also, the expression levels of the adipocyte differentiation factors PPARγ, aP2 and CD36 compound were investigated while differentiating the C3H10T1/2 cells into adipocytes in the same manner as in Test Example 1.
(§3) Total RNA was extracted using TRIzol (Invitrogen). 1 μg of the isolated RNA was synthesized into cDNA by adding random primers, dNTP and PrimeScript™ reverse transcriptase (Takara). The synthesized cDNA was subjected to real-time PCR using primers and SYBR Premix Ex Taq (Takara).

[3] = system: PPARγ, aP2 and CD36 mRNAs in C3H10T1/2 cells; assay: mRNA expression of adipocyte differentiation factors PPARγ, aP2 and CD36 (real-time PCR)
Text: as §1, §2, §3

[4] = system: C3H10T1/2 cells; assay: ALP (alkaline phosphatase) production during differentiation of C3H10T1/2 cells into osteoblasts (ALP staining, -b value)
Procedure: The C3H10T1/2 cells derived from mouse embryo fibroblasts are pluripotent stem cells that can differentiate into various cell lineages including osteoblasts. Because one of the characteristics of osteoblasts is the ALP (alkaline phosphatase) activity, the differentiation of the C3H10T1/2 cells into osteoblasts was measured based on the ALP activity.
The C3H10T1/2 cells were cultured with a DMEM medium supplemented with 10% FBS and 1% penicillin/streptomycin under the condition of 37° C. and 5% CO2. The C3H10T1/2 cells were cultured on a 6-well plate at a concentration of 2.5×10^4/mL with a medium containing 10 mM β-glycerophosphate and 50 μg/mL ascorbic acid for osteocyte differentiation. The differentiation was performed for 9 days after adding the NK11 compound at 0.1, 0.5, 1 and 5 μM, while replacing the medium with 3-day intervals. Then, ALP staining was performed using 5-bromo-4-chloro-3-indolyl phosphate/nitro blue tetrazolium (BCIP/NBT).
Then, the Lab color space was measured using the image files of the ALP-stained well plate.

[5] = Test Example 3: NK11 at 1 μM, other compounds at 5 μM
[6] = Test Example 3: NK11 at 1 μM, other compounds at 5 μM, vs negative control group (DMSO)
[7] = 0.1, 0.5, 1 and 5 μM, 9 days differentiation, compared to DMSO-treated negative control

Compound: COC(=O)[C@@H]1[C@@H](C(=O)OC)[C@H](c2cc(OC)c(O)c(OC)c2)O[C@H]1c1cc(OC)c(O)c(OC)c1 [Chemical Formula 2]
- effect of inhibiting adipocyte differentiation [1]: no difference in the effect of inhibiting adipocyte differentiation from the negative control group (DMSO)
- expression level of ALP, osteogenesis marker (mRNA) [2]: no effect
- expression levels of the adipocyte-related genes CD36, aP2 and PPARγ [3, 5]: no effect
- ALP production [4, 6]: no difference in ALP production from the negative control group (DMSO)

Compound: COCOc1c(OC)cc([C@@H]2O[C@@H](c3cc(OC)c(OCOC)c(OC)c3)[C@H](CO)[C@H]2CO)cc1OC [Chemical Formula 4]
- effect of inhibiting adipocyte differentiation [1]: no difference in the effect of inhibiting adipocyte differentiation from the negative control group (DMSO)
- expression level of ALP, osteogenesis marker (mRNA) [2]: no effect
- expression levels of the adipocyte-related genes CD36, aP2 and PPARγ [3, 5]: no effect
- ALP production [4, 6]: no difference in ALP production from the negative control group (DMSO)

Compound: COc1cc([C@@H]2O[C@@H](c3cc(OC)c(O)c(OC)c3)[C@H](COC(=O)/C=C/c3ccc(O)cc3)[C@H]2COC(=O)/C=C\c2ccc(O)cc2)cc(OC)c1O [Chemical Formula 8]
- fat production by adipocytes (Oil Red O) [1, 7]: inhibited fat production by adipocytes in a concentration-dependent manner
- expression of ALP, osteogenesis marker (mRNA) ([2]; at the concentration of 5 μM): expressed highly
- expression levels of the adipocyte-related genes CD36, aP2 and PPARγ ([3]; 0.1, 0.5, 1 and 5 μM, mRNA, real-time PCR): decreased the expression levels of the adipocyte-related genes CD36, aP2 and PPARγ in a concentration-dependent manner
- ALP production [4, 7]: increased ALP production in a concentration-dependent manner

Compound: COc1cc([C@@H]2O[C@@H](c3cc(OC)c(O)c(OC)c3)[C@H](COC(=O)/C=C/c3ccccc3)[C@H]2COC(=O)/C=C/c2ccccc2)cc(OC)c1O [Chemical Formula 9]
- effect of inhibiting adipocyte differentiation [1]: showed the effect of inhibiting adipocyte differentiation as the NK11 compound
- expression level of ALP, osteogenesis marker (mRNA) [2]: high
- expression levels of the adipocyte-related genes CD36, aP2 and PPARγ [3, 5]: decreased
- ALP production [4, 6]: significant effect of promoting ALP production although slightly lower than that of NK11
- ALP production as compared to the NK11 compound ([4]; Test Example 3: compound at 5 μM vs NK11 at 1 μM): about 2 times

Compound: COc1cc([C@@H]2O[C@@H](c3cc(OC)c(O)c(OC)c3)[C@H](CO)[C@H]2CO)cc(OC)c1O [Chemical Formula 10]
- effect of inhibiting adipocyte differentiation [1]: no difference in the effect of inhibiting adipocyte differentiation from the negative control group (DMSO)
- expression level of ALP, osteogenesis marker (mRNA) [2]: no effect
- expression levels of the adipocyte-related genes CD36, aP2 and PPARγ [3, 5]: no effect
- ALP production [4, 6]: no difference in ALP production from the negative control group (DMSO)

Compound: COc1cc([C@@H]2O[C@@H](c3cc(OC)c(O)c(OC)c3)[C@H](COC(C)=O)[C@H]2COC(C)=O)cc(OC)c1O [Chemical Formula 11]
- effect of inhibiting adipocyte differentiation [1]: no difference in the effect of inhibiting adipocyte differentiation from the negative control group (DMSO)
- expression level of ALP, osteogenesis marker (mRNA) [2]: no effect
- expression levels of the adipocyte-related genes CD36, aP2 and PPARγ [3, 5]: no effect
- ALP production [4, 6]: no difference in ALP production from the negative control group (DMSO)
